Measurements from US8088727B2, “Method for reducing the risk, lessening the symptom, or delaying the onset of insulin resistance by administering SS-31” (Cornell University, priority 2008, dated 2012).
Square brackets hold non-standard residues; d marks the D form. Ends that are not written are not given here. Peptide text beside a SMILES is read from it. Dmt = Cc1cc(O)cc(C)c1C[C@H](N)C(=O)O

Experiments:
[1] = system: several mammalian cell types; details: several mammalian cell types (Zhao et al. 2003); cited from earlier work
[2] = system: mitochondrial inner membrane; details: while scavenging ROS; cited from earlier work
mu-opioid receptor = mu-opioid receptor (Homo sapiens, UniProt P35372); details: cited from earlier work
Sequence of mu-opioid receptor (P35372 whole entry, species assumed): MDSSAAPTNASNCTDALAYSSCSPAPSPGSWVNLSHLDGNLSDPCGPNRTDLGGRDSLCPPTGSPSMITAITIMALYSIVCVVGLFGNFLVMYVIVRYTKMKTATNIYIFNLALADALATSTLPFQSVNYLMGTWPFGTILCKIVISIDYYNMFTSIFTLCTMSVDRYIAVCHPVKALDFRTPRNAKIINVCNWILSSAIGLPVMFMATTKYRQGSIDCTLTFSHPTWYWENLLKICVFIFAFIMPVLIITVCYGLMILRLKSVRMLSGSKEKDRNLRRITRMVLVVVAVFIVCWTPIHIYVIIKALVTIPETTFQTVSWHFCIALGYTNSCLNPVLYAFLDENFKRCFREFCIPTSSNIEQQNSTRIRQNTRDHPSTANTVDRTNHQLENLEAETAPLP

[3] = system: high fat diet-induced insulin resistance; assay: Oral glucose tolerance test after six week high fat diet; type: in vivo, rat
Method: To determine whether mitochondrial-derived changes in intracellular redox environment may be linked to the etiology of high fat diet-induced insulin resistance, oral glucose tolerance tests were performed in rats after the six week high fat diet. On the day of experiments, food was removed 10 hr prior to administration of a 2 g/kg glucose solution via gavage. Glucose levels were determined on whole blood samples (Lifescan, Milpitas, Calif.). Serum insulin levels were determined via a rat/mouse ELISA kit (Linco Research, St. Charles, Mo.). Fasting data were used to determine homeostatic model assessment (HOMA)-calculated as fasting insulin (μU/ml) x fasting glucose (mM)/22.5.

[4] = system: intracellular redox environment in skeletal muscle; assay: Total glutathione and GSH/GSSG ratio in skeletal muscle of high fat fed rats; type: in vivo, rat
Method: Protein homogenates were prepared by homogenizing 100 mg of powered frozen muscle in a buffer containing in mM: 10 Tris, 1 EDTA, 1 EGTA, 2 NaOrthovanadate, 2 NaPyrophosphate, 5 NaF, protease inhibitor cocktail (Complete) at pH 7.2. After homogenization, 1% Triton X-100 was added to the protein suspension, cotexed and allowed to sit on ice for 5 minutes. The tubes were then spun at 10,000 rpm for 10 minutes to pellet the insoluble debris. For GSSG measurement, tissue was homogenized in a solution containing 20 mM Methyl-2-vinylpyridinium triflate to scavenge all reduced thiols in the sample. Total GSH and GSSG were then measured using the reagents and calibration set provided by the GSH/GSSG assay (Oxis Research) according to the manufacturer's instructions, with small modifications as needed.
To establish a link between the increased mitochondrial oxidant emission brought about by high fat diet and its effect on overall redox environment of skeletal muscle, both GSH and GSSG were measured in skeletal muscle of chow fed and high fat fed rats under two conditions; after a 10 h fast and 1 h after administration of a standard glucose load (oral gavage, 10 h fasted). […]

[5] = system: mitochondrial H2O2 emission in permeabilized skeletal muscle fiber bundles; assay: Mitochondrial H2O2 emission in permeabilized skeletal muscle fiber bundles, SS-31 dose response in vitro; type: cell-based, rat; details: dose response curve in vitro (FIG. 3A), succinate-supported respiration
Method: Preparation of permeabilized muscle fiber bundles. Briefly, small portions (25 mg) of soleus, RG, and WG muscle were dissected and placed in ice-cold buffer X, containing 60 mM K-MES, 35 mM KCl, 7.23 mM K2 EGTA, 2.77 mM CaK2EGTA, 20 mM imidazole, 0.5 mM DTT, 20 mM taurine, 5.7 mM ATP, 15 mM PCr, and 6.56 mM MgCl2·6H2O (pH 7.1, 295 mosmol/kg H2O). The muscle was trimmed of connective tissue and cut down to fiber bundles (2×7 mm, 4-8 mg wet wt). With a pair of needle-tipped forceps under a dissecting microscope, fibers were gently separated from one another to maximize surface area of the fiber bundle, leaving only small regions of contact. […]
Mitochondrial respiration and H2O2 emission measurements. […] Mitochondrial H2O2 emission was measured at 30° C. during state 4 respiration in Buffer Z (10 μg/ml oligomycin) by continuously monitoring oxidation of Amplex Red using a Spex Fluoromax 3 (Jobin Yvon, Ltd.) spectrofluorometer with temperature control and magnetic stirring at >1000 rpm. […] After baseline fluorescence (reactants only) was established, the reaction was initiated by addition of a permeabilized fiber bundle to 300 μl of buffer Z containing 5 μM Amplex Red and 0.5 U/ml HRP, with succinate at […]. […] The rate of respiration is expressed as pmol·s^−1·mg dry weight^−1, and mitochondrial H2O2 emission expressed as pmol·min^−1·mg dry weight^−1. […]

fatty (fa/fa) Zucker rat = details: SS-31 1.0-5.0 mg/kg i.p. or oral, approximately 6 weeks
Method: Measured outcomes include body weight, fasting glucose/insulin/free fatty acid, glucose tolerance (OGTT), in vitro muscle insulin sensitivity (incubation), markers of insulin signaling (Akt-P, IRS-P), mitochondrial function studies on permeabilized fibers (respiration, H2O2 emission), markers of intracellular oxidative stress (lipid peroxidation, GSH/GSSG ratio, aconitase activity) and mitochondrial enzyme activity. […] Successful prevention of insulin resistance by the aromatic-cationic peptides of the invention is indicated by a reduction in one or more of the markers associated with insulin resistance or mitochondrial dysfunction enumerated above.
Measured outcomes include body weight, fasting glucose/insulin/free fatty acid, glucose tolerance (OGTT), in vitro muscle insulin sensitivity (incubation), markers of insulin signaling (Akt-P, IRS-P), mitochondrial function studies on permeabilized fibers (respiration, H2O2 emission), markers of intracellular oxidative stress (lipid peroxidation, GSH/GSSG ratio, aconitase activity) and mitochondrial enzyme activity. […] Successful treatment of insulin resistance by the aromatic-cationic peptides of the invention is indicated by a reduction in one or more of the markers associated with insulin resistance or mitochondrial dysfunction enumerated above.

[6] = system: animal models of Parkinson's and amyotrophic lateral sclerosis disease; details: animal models of Parkinson's and amyotrophic lateral sclerosis disease (Petri et al. 2006; Szeto et al. 2006); cited from earlier work
[7] = system: skeletal muscle mitochondrial respiration of high fat fed rats; assay: Mitochondrial respiration in permeabilized fibers from high fat fed rats given SS-31; type: in vivo, rat
Description: (§1) Next, rats were placed on a high fat diet (60%) for six weeks with or without daily administration of SS-31.

[8] = rat, in vivo
Description: as §1

[9] = system: hearts subjected to myocardial stunning; details: hearts subjected to myocardial stunning (Zhao et al. 2004); cited from earlier work
Akt = Akt phosphorylation in skeletal muscle after oral glucose load; type: in vivo, rat; details: skeletal muscle of high fat fed rats, 1 h after oral glucose load (FIGS. 4E and 4F)
Method: Increased homeostatic model assessment (HOMA, FIG. 4C), and greater area under the curves for both blood glucose and insulin (FIG. 4D) confirmed the development of insulin resistance in high fat fed rats. […] To further assess insulin sensitivity, the phosphorylation state of the insulin signaling protein Akt in skeletal muscle from animals was measured after a 10 h fast or 1 h after receiving an oral glucose load. In response to glucose ingestion, Akt phosphorylation increased ˜5-fold in skeletal muscle of chow-fed controls but was unchanged in high fat fed rats (FIGS. 4E and 4F), confirming the presence of insulin resistance at the level of insulin signaling.

[10] = system: skeletal muscle mitochondrial H2O2 emission of high fat fed rats; assay: Mitochondrial H2O2 emission in permeabilized fibers from high fat fed rats given SS-31; type: in vivo, rat; details: for increase in mitochondrial oxidant emitting potential: high fat diet (60%) six weeks
Description: as §1

pancreatic islet cells = pancreatic islet cells after transplantation (Thomas et al. 2005); cited from earlier work

For 2′,6′-Dmt-D-Arg-Phe-Lys-NH2 [SS-02], which “penetration of the plasma membrane” value [1] is on record?
The value was “readily penetrates”.

What does the source list for Cc1cc(O)cc(C)c1C[C@H](NC(=O)[C@H](N)CCCNC(=N)N)C(=O)N[C@@H](CCCCN)C(=O)N[C@@H](Cc1ccccc1)C(N)=O [SS-31, D-Arg-2′6′Dmt-Lys-Phe-NH2] (H-[dR][Dmt]KF-NH2)?
effect on membrane potential or respiratory control [2]: without affecting; mu-opioid receptor agonist activity (mu-opioid receptor): does not have mu-opioid receptor agonist activity; development of insulin resistance (HOMA, area under the curves for blood glucose and insulin) ([3]; high fat fed rats (FIGS. 4C and 4D)): completely blocked; blood glucose response to the oral glucose challenge ([3]; high fat fed rats, 2 g/kg glucose by gavage (FIG. 4A)): normalized; insulin response to the oral glucose challenge ([3]; high fat fed rats, 2 g/kg glucose by gavage (FIG. 4B)): normalized; GSH/GSSG ratio ([4]; high fat fed rats, 10 h fast and 1 h after glucose ingestion (FIG. 3H)): preserved the GSH/GSSG ratio near control levels; reduction in total cellular glutathione content (GSHT) ([4]; high fat feeding with SS-31 treatment, skeletal muscle (FIG. 3G)): ~30%; reduction in mitochondrial H2O2 emission [5]: greater than 50%; whole body and muscle insulin resistance (fatty (fa/fa) Zucker rat; Zucker rats (~12 weeks of age)): ameliorate or reduce; development of whole body and muscle insulin resistance (fatty (fa/fa) Zucker rat; young Zucker rats (~3-4 weeks of age)): attenuate or prevent; ROS [6]: effectively reduce ROS; basal rate of respiration ([7]; palmitoyl-carnitine-supported, high fat fed rats (FIG. 3F)): not affected; basal rate of respiration ([7]; pyruvate/malate-supported, high fat fed rats (FIG. 3E)): not affected; weight gain [8]: did not affect; ROS [9]: effectively reduce ROS; Akt phosphorylation in response to glucose ingestion (Akt): completely preserved; reduction in mitochondrial H2O2 emission ([10]; dose response curve in vivo (FIG. 3B), succinate-supported respiration): greater than 50%; increase in mitochondrial oxidant emitting potential ([10]; palmitoyl-carnitine supported respiration, daily SS-31 (FIG. 3D)): completely prevented; increase in mitochondrial oxidant emitting potential ([10]; succinate supported respiration, daily SS-31 (FIG. 3C)): completely prevented; ROS (pancreatic islet cells): effectively reduce ROS

For F[dR]FK-NH2 [SS-20], which “mu-opioid receptor agonist activity” value (mu-opioid receptor) is on record?
Its value is “does not have mu-opioid receptor agonist activity”.

Which “mu-opioid receptor agonist activity” value (mu-opioid receptor) does the source give for Tyr-D-Arg-Phe-Lys-NH2 [SS-01] here?
Its value is “has mu-opioid receptor agonist activity”.
